Test results reported in patent US11142550B2, “Split inteins with exceptional splicing activity” (THE TRUSTEES OF PRINCETON UNIVERSITY, priority 2016, dated 2021).
“Also recorded” adds a separate entry of the source.

Columns and labels:
[1] = system: split intein constructs with short native extein sequences; assay: in vitro protein trans-splicing (PTS) assay, RP-HPLC / ESI-MS kinetics; type: biochemical
Text: Thus, attention was focused on ‘second shell’ residues, those directly adjacent to the active site. To simplify this analysis, a batch mutagenesis strategy was employed in conjunction with a previously reported in vitro PTS assay.^5 This assay uses split intein constructs with short native extein sequences and allows the rates of branched intermediate formation (k1,k2) and its resolution to final splice products (k3) to be determined using a three state kinetic model.
Splicing reactions were carried out as adapted from a previously described protocol. Briefly, N- and C-inteins (15 μM Int^N, 10 μM Int^C) were individually preincubated in splicing buffer (100 mM sodium phosphates, 150 mM NaCl, 1 mM EDTA, pH 7.2) with 2 mM TCEP for 15 minutes. All splicing reactions were carried out at 30° C. unless otherwise indicated. Splicing reactions comparing the tolerance of Npu and Cfa to chaotropic agents were carried out with the indicated concentration of either Urea or guanidine hydrochloride. Splicing was initiated by mixing equal volumes of N- and C-inteins with aliquots removed at the indicated times and quenched by the addition of 8M guanidine hydrochloride, 4% TFA (3:1 v/v). For all splicing reactions containing either Npu^C-CFN or Cfa^C-CFN, reaction progress was monitored by RP-HPLC. […] (15 minute preincubation) were both observed to be inefficient, reaching ˜50% completion. This is likely due to aggregation (and inactivation) of the N-intein. Note, shorter preincubations of Cfa at 80° C. led to more efficient splicing.
Kinetic analysis was carried out as previously described.^1 Briefly, five species (1-5) are separated by RP-HPLC, and peak areas are determined. For ESI-MS, peak areas are calculated for species 1-4. Each individual peak was normalized against the total area of all peaks combined and reaction progress curves were plotted (n=3). The data were then fit in ProFit to the analytical solution to the coupled differential rate equation for the three state kinetic splicing model. Because the starting material cannot be separated from the linear thioester using this assay, the three state kinetic model collapses the binding step and the first two steps of the splicing reaction into one equilibrium. Each splicing reaction was carried out in triplicate with each replicate analyzed separately. The mean and standard deviation for all values (n=3) are reported.
All splicing reactions comparing Npu and Cfa were separated by RP-HPLC with peak areas once again calculated using the manufacturer's software. For these reactions, peak areas for the starting material and branched intermediate (species 1 and 2) and product (species 3, 4, 5) were calculated. The data was then fit to the first order rate equation using the GraphPad Prism software. [P](t)=[P]max·(1−e^−kt)
Where [P] is the normalized intensity of product, [P]max is this value at t=∞ (the reaction plateau), and k is the rate constant (s^−1). The mean and standard deviation (n=3) are reported.

[2] = refolding of N-inteins by stepwise dialysis; type: physicochemical; details: stepwise dialysis into lysis buffer, 4° C.
Protocol: The N-inteins were refolded by stepwise dialysis into lysis buffer with 0.5 mM DTT at 4° C. This refolded protein was then treated with 10 mM TCEP and Ulp1 protease (overnight, RT) to cleave the His6-SUMO expression tag. The solution was then mixed with 4 mL Ni-NTA resin and incubated for 30 minutes at 4° C. The slurry was applied to a fritted column and the flow through was collected together with a 3 CV wash with lysis buffer. The protein was then treated with 10 mM TCEP, concentrated to 10 mL, and further purified by size exclusion chromatography using an S75 16/60 gel filtration column employing degassed splicing buffer (100 mM sodium phosphate, 150 mM NaCl, 1 mM EDTA, pH 7.2) as the mobile phase. Fractions were analyzed by SDS-PAGE, analytical RP-HPLC, and ESI-MS. Pure protein was stored by flash-freezing in liquid N2 following the addition of glycerol (20% v/v).

[3] = system: split aminoglycoside phosphotransferase (KanR) in E. coli; assay: protein splicing coupled kanamycin resistance (Kan^R) assay; type: cell-based; details: +2 position of the C-extein
Protocol: The protein splicing coupled kanamycin resistance (Kan^R) assay was carried out as previously described.^2,9 Briefly, a plasmid coding for a fragmented aminoglycoside phosphotransferase fused to a split intein (Cfa) with either F, G, R, or E present at the +2 position of the C-extein (plasmids 22-25) was transformed into DH5α competent cells and grown in starter cultures overnight (LB Broth, 100 μg/mL ampicillin, 18 hrs). These cultures were then diluted twenty-fold into a 96 well plate, and E. coli growth was measured at various concentrations of kanamycin (2.5, 10, 25, 50, 100, 250, 1000 μg/mL kanamycin with 100 μg/mL ampicillin). The cell optical density at 650 nm (OD650) at the 24-hour end point was fit to a dose response curve with variable slope.
Where ODmin was fixed to background absorbance at 650 nm. Each assay was carried out in triplicate, fit separately, and IC50 values are reported as the mean and standard deviation of IC50 for these three separate measurements.
The kanamycin resistance protein, KanR, is split and fused to N- and C-intein fragments (Cfa^N and Cfa^C). The +2 C-extein residue (red X) is varied in the system. In Panel B, IC50 values for kanamycin resistance of the CfaEKD (WT) and CfaGEP (GEP) inteins with indicated +2 C-extein residue are shown (error=standard error (n=3)).

[4] = system: Cfa^C-CFN; assay: protein trans-splicing of extracted inclusion body under denaturing conditions; type: biochemical; details: extracted from inclusion bodies with 6M urea
Protocol: E. coli inclusion bodies containing His6-Sumo-Cfa^N expression (plasmid 20) were resuspended and extracted overnight at 4° C. in lysis buffer containing 6M urea. Following centrifugation (35,000 rcf, 30 min), the supernatant was removed and the protein enriched by Ni-NTA under denaturing conditions (as described above). However, instead of refolding the protein, trans-splicing was directly initiated by the addition of Cfa^C-CFN (10 μM Cfa^C, 2 mM TCEP, 2 mM EDTA, 2 hrs, RT). Reaction progress was monitored by SDS-PAGE.

[5] = system: split intein constructs with short native extein sequences; details: 30° C.; cited from earlier work

Substance: A136S: A136S point mutant on the Ssp^C intein; plasmid 19, SEQ ID NO: 379 [Compound A136S]
- effect of mutation on branch formation ([1]; mutation on Ssp^C): no impact
- effect of mutation on rate of branch resolution ([1]; mutation on Ssp^C): two fold

Substance: Batch 3: Ssp^N batch mutant (S23E, E24K, E25R, N27E); plasmid 13, SEQ ID NO: 373
- splicing completion ([1]; 30° C.): ~50%
- precipitation during the refolding step [2]: significant protein precipitation was observed

Substance: Cfa: consensus fast DnaE split intein; Cfa^N SEQ ID NO: 2, Cfa^C SEQ ID NO: 3
- C-extein +2 residue preference [3]: retains the preference for a bulky hydrophobic residue
- splicing rate constant k (residual activity) ([1]; 4M GuHCl): 7e-05 s⁻¹
- splicing in urea ([1]; 8M urea): largely unaffected
- branch formation rate, increase over Npu ([1]; 30° C., relative to Npu): 3 fold
- branch resolution rate, increase over Npu ([1]; 30° C., relative to Npu): 2 fold
- splices faster than Npu ([1]; 30° C., relative to Npu): 2.5 fold
- splicing activity at 80° C. ([1]; 80° C.): maintains activity at 80° C., albeit with reduced yield of splice products
- splicing completion ([1]; 80° C., 15 minute preincubation): ~50%
- GuHCl concentration up to which the intein splices ([1]; guanidine hydrochloride added): up to 4 M
- splicing activity in GuHCl ([1]; up to 3M GuHCl): little decrease in activity

Substance: Cfa^N fusion: model fusion protein His6-SUMO-AEY-Cfa^N; plasmid 20, SEQ ID NO: 381
- modification by PTS without refolding [4]: efficiently, modified by PTS

Substance: Npu: DnaE split intein from Nostoc punctiforme PCC73102; SEQ ID NO: 5 and 6 [reference compound]
- rate of protein trans-splicing (PTS), t1/2 [5]: 50 s
- splicing in urea ([1]; 8M urea): inactive
- splicing activity at 80° C. ([1]; 80° C.): inactive
- splicing in urea ([1]; above 4M urea): falls off dramatically
- splicing activity in GuHCl ([1]; ≥3M GuHCl (3M in FIG. 2 legend)): no activity was observed; also recorded: inactive
